BindingDB's records for PubMed 2498315 (University of California San Diego, 1989)
pIC50: −log10 of the molar value.

Molecular target: Phospholipase A2 (Homo sapiens, UniProt P04054)
Experiment: Phospholipase A2 Vesicle Assay
Settings: pH 9; 40 °C
Description: Inhibition assay using phospholipase A2.

Chain of Phospholipase A2 (P04054 whole entry): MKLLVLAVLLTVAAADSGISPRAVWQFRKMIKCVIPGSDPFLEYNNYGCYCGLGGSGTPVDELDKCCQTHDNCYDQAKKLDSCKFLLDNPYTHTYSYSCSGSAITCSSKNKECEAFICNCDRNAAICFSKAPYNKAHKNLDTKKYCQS

pIC50 | Compound
4.80 | CCCCCCCCCCC/C=C/C(C)(C)/C=C/CCCC(=O)O [7,7-dimethyl-5,8-eicosadienoic acid]
4.59 | CC(C)=CCC/C(C)=C/C/C(C=O)=C\CCC1=CC(=O)OC1O (stereo not drawn) [Manoalogue]

Compound | pIC50
O=C(CBr)c1ccc(Br)cc1 [2-bromo-1-(4-bromophenyl)ethan-1-one] | 3.26
